# Legend:
# [1] = test system: B16F10 cells; assay: In vitro competition binding assay on B16-F10 cells vs 125I-[Nle4,D-Phe7]-alpha-MSH; design: species or system Mus musculus; details: natGa-coupled peptides
# Protocol: The B16-F10 melanoma cell line (Mus musculus) used in the tumor model was obtained commercially from ATTC (CRL-6475). Cells were cultured in Dulbecco's Modified Eagle's Medium (DMEM, StemCell Technologies) supplemented by 10% FBS, 100 U/mL penicillin and 100 μg/mL streptomycin at 37° C. in a humidified incubator containing 5% CO2. Cells grown to roughly 90% confluence were washed with sterile phosphate-buffered saline (lx PBS, pH 7.4), followed by trypsinization. For tumour implantation, C57BL/6J mice were anesthetized by inhalation with 2% isoflurane in 2.0 L/min of oxygen, 2×10^6 B16-F10 cells were inoculated subcutaneously on right dorsal flank. Mice were imaged or used in biodistribution studies once the tumour reached 6-8 mm in diameter.
# In vitro competitive binding assays were performed using B16-F10 cells and the cell culture method described in Example 1. 500,000 cells/well were seeded onto a 24 well poly-D-lysine coated plate (Corning) overnight. Growth media was removed, and reaction buffer containing 4.8 mg/mL HEPES, […] penicillin/[…] and 2 mg/mL BSA was added, and allowed to incubate with cells at 37° C. for at least an hour. Peptide of interest and ^125I-[Nle^4, D-Phe^7]-alpha-MSH (Perkin Elmer) were added to each well. The binding of ^125I-[Nle^4, D-Phe^7]-alpha-MSH was competed by non-radioactive gallium coupled CCZ01103, CCZ01104, CCZ01105, CCZ01106 or CCZ01114 at increasing concentrations from 0.5 pmol/mL to […]. The reaction mixture was incubated at 25° C. with moderate shaking for 1 h. After the incubation, the reaction mixture was removed, and cells were washed with ice-cold PBS twice. 0.25% Trypsin solution was used to harvest the cells and radioactivity was measured using a Wallac WIZARD2 gamma counter (Perkin Elmer).
# [2] = test system: SK-MEL-1 human melanoma; assay: SPECT/CT imaging of mice bearing SK-MEL-1 human melanoma; format: in vivo, NRG mice; details: 24 h p.i.
# Protocol: SPECT/CT imaging experiments were conducted using the same conditions as described in Example 3. […] (FIG. 6).
# [3] = test system: B16-F10 tumours; details: Zhang et al., 2017 Theranostics; cited from earlier work
# [4] = In vivo stability in mouse urine at 1 h p.i. (radio-HPLC); design: species or system C57BL/6J mice
# Protocol: All animal experiments were conducted in according to the guidelines established by Canadian Council on Animal Care and approved by Animal Ethics Committee of the University of British Columbia. Mice were housed under pathogen-free conditions and kept on twelve hours light and twelve hours dark cycle in the Animal Research Centre, BC Cancer Research Centre, Vancouver, Canada. C57BL/6J mice were anesthetized by inhalation with 2% isoflurane in 2.0 L/min of oxygen, and approximately 4-6 MBq of [^68Ga]Ga-CCZ01099 or [^68Ga]Ga-CCZ01048 was injected intravenously. The mice were allowed to recover and roam freely in their cages. At 1 h post-injection (p.i.), the mice were euthanized by CO2 inhalation and their urine was collected and analyzed on HPLC for metabolite using the conditions described above. In vivo urine stability of [^68Ga]Ga-CCZ01099 and [^68Ga]Ga-CCZ01048 were 34.0±10.4% and ≥98.0% (n≥3), respectively.
# The in vivo stability tests in mouse urine were performed as described in Example 1. […] With systematic reduction in the number of N-methylations for the αMSH analogues, a decrease in in vivo stability was observed.
smiles,measurement,setting,value
"CCCC[C@H](NC(=O)CN1CCC(NC(=O)CN2CCN(CC(=O)O)CCN(CC(=O)O)CCN(CC(=O)O)CC2)CC1)C(=O)N[C@H]1CC(=O)NCCCC[C@@H](C(N)=O)NC(=O)[C@H](Cc2c[nH]c3ccccc23)NC(=O)[C@H](CCCNC(=N)N)N(C)C(=O)[C@@H](Cc2ccccc2)NC(=O)[C@H](Cc2c[nH]cn2)NC1=O [CCZ01114, DOTA-Pip-Nle-cyclo[Asp-His-D-Phe-(N-Me-Arg)-Trp-Lys]-NH2]",Binding affinity (comparison among the five analogues),[1],highest binding affinity
CCCC[C@H](NC(=O)CN1CCC(NC(=O)[C@H](CCCCNC(=O)CN2CCN(CC(=O)O)CCN(CC(=O)O)CCN(CC(=O)O)CC2)NC(=O)CNC(=O)CCCc2ccc(I)cc2)CC1)C(=O)N[C@H]1CC(=O)NCCCC[C@@H](C(N)=O)N(C)C(=O)[C@H](Cc2c[nH]c3ccccc23)NC(=O)[C@H](CCCNC(=N)N)N(C)C(=O)[C@@H](Cc2ccccc2)NC(=O)[C@H](Cc2c[nH]cn2)NC1=O [CCZ01148],Tumour uptake / retention in SPECT images,[2],showed improved the tumour retention
"CCCC[C@H](NC(=O)CN1CCC(NC(=O)CN2CCN(CC(=O)O)CCN(CC(=O)O)CCN(CC(=O)O)CC2)CC1)C(=O)N[C@H]1CC(=O)NCCCC[C@@H](C(N)=O)NC(=O)[C@H](Cc2c[nH]c3ccccc23)NC(=O)[C@H](CCCNC(=N)N)NC(=O)[C@@H](Cc2ccccc2)NC(=O)[C@H](Cc2c[nH]cn2)NC1=O [[^68Ga]Ga-CCZ01048, metal not drawn, reference compound]",Thyroid uptake on PET images,[3],thyroid uptake was clearly observed
same,"In vivo urine stability, intact tracer",[4],≥ 98.0%
"CCCC[C@H](NC(=O)CN1CCC(NC(=O)CN2CCN(CC(=O)O)CCN(CC(=O)O)CCN(CC(=O)O)CC2)CC1)C(=O)N[C@H]1CC(=O)NCCCC[C@@H](C(N)=O)N(C)C(=O)[C@H](Cc2c[nH]c3ccccc23)NC(=O)[C@H](CCCNC(=N)N)N(C)C(=O)[C@@H](Cc2ccccc2)NC(=O)[C@H](Cc2c[nH]cn2)NC1=O [CCZ01106, DOTA-Pip-Nle-cyclo[Asp-His-D-Phe-(N-Me-Arg)-Trp-(N-Me-Lys)]—NH2]","In vivo urine stability, intact tracer",[4],82.5±1.8%
same,Binding affinity (comparison among the five analogues),[1],highest binding affinity
same,Ki,"[1]; n ≥ 3, read-out: Inhibition constants (Ki) on B16F10 cells",1.5 ± 0.1 nM
CCCC[C@H](NC(=O)CN1CCC(NC(=O)[C@H](CCCCNC(=O)CN2CCN(CC(=O)O)CCN(CC(=O)O)CCN(CC(=O)O)CC2)NC(=O)CNC(=O)CCCc2ccc(C)cc2)CC1)C(=O)N[C@H]1CC(=O)NCCCC[C@@H](C(N)=O)N(C)C(=O)[C@H](Cc2c[nH]c3ccccc23)NC(=O)[C@H](CCCNC(=N)N)N(C)C(=O)[C@@H](Cc2ccccc2)NC(=O)[C@H](Cc2cnc[nH]2)NC1=O [CCZ01158],Blood uptake in SPECT images,[2],Lower blood uptake was observed
same,Tumour uptake / retention in SPECT images,[2],showed improved the tumour retention
"CCCC[C@H](NC(=O)CN1CCC(NC(=O)CN2CCN(CC(=O)O)CCN(CC(=O)O)CCN(CC(=O)O)CC2)CC1)C(=O)N[C@H]1CC(=O)NCCCC[C@@H](C(N)=O)N(C)C(=O)[C@H](Cc2c[nH]c3ccccc23)N(C)C(=O)[C@H](CCCNC(=N)N)N(C)C(=O)[C@@H](Cc2ccccc2)NC(=O)[C@H](Cc2c[nH]cn2)NC1=O [[^68Ga]Ga-CCZ01103, metal not drawn]","In vivo urine stability, intact tracer",[4],92.6 ± 1.6%
"CCCC[C@H](NC(=O)CN1CCC(NC(=O)CN2CCN(CC(=O)O)CCN(CC(=O)O)CCN(CC(=O)O)CC2)CC1)C(=O)N[C@H]1CC(=O)NCCCC[C@@H](C(N)=O)NC(=O)[C@H](Cc2c[nH]c3ccccc23)N(C)C(=O)[C@H](CCCNC(=N)N)N(C)C(=O)[C@@H](Cc2ccccc2)NC(=O)[C@H](Cc2c[nH]cn2)NC1=O [[^68Ga]Ga-CCZ01104, metal not drawn]","In vivo urine stability, intact tracer",[4],92.5 ± 2.1%

# — patent US11395857B2, “Radiolabeled melanocortin 1 receptor-specific alpha-melanocyte-stimulating hormone analogues for imaging or therapy” (PROVINCIAL HEALTH SERVICES AUTHORITY, priority 2018, dated 2022)
